{"source": "patent US4681091A", "about": "“Combination modality cancer therapy” (priority 1985, dated 1987)", "key": {"[1]": {"test_system": "bacterial cells (salmonella typhimurium TM677)", "settings": "salmonella typhimurium tm677, 0 h, 200 µM"}, "[2]": {"test_system": "bacterial cells (salmonella typhimurium TM677)"}, "in vitro": {"test": "in vitro", "settings": "salmonella typhimurium tm677, N/No (toxicity)"}, "mammalian cell culture [3]": {"test_system": "mammalian cell culture", "test": "cells", "from_the_text": "Immediately after addition of the drug to the culture media, the petri dishes containing the cells are placed into aluminium chambers which are then degassed and purged with nitrogen to produce hypoxia. The degassing/back-filling cycle is repeated two times and the cells are irradiated with cobalt-60 gamma rays in the aluminium chambers at the end of the two hours. Control, un-irradiated cell cultures are exposed to the drug in various concentrations to assess drug cytotoxicity. Immediately following irradiation the cells are removed from the petri dishes using trypsin enzyme for 6 minutes, pipetted into single cell suspensions, and serially diluted for subculturing in triplicate petri dishes containing 5 cc of fresh culture media without the test compound. These dishes are incubated in 5% CO2 at 37° C. for 10 days and, following staining, the colonies are counted to produce survival curves (surviving fraction of cells versus compound concentration or radiation dose). As in the bacterial radiosensitization tests, baseline curves for irradiation of the mammalian cells under oxic and hypoxic conditions in the absence of the compound are also determined to allow a quantitative estimation of the efficiency of the compound in sensitizing the cells to radiation-induced killing by deriving enhancement ratios.\nIn FIG. 3, the dotted line represents the standard or average reported misonidazole response. The symbols \" \" and ` ` represent experimental misonidazole response and the experimental Rh compound response respectively."}, "mammalian cell culture [4]": {"test_system": "mammalian cell culture", "settings": "for 1 hour Aerobic Cytotoxicity: aerobic mammalian cell culture; for 1 hour hypoxic cytotoxicity: hypoxic mammalian cell culture"}}, "note": "Like-named read-outs stand apart in the source and are kept apart here."}
{"compound": "O=[N+]([O-])[Rh-3]([N+](=O)[O-])([N+](=O)[O-])([N+](=O)[O-])([N+](=O)[O-])[N+](=O)[O-].[K+].[K+].[K+]", "note": "[Compound 2, potassium hexanitrorhodium (III)]", "values": [{"measurement": "N/No (toxicity)", "setting": "[1]", "result": 1}, {"measurement": "improvement for cell-kill (N/No), sensitised vs unsensitised cells", "setting": "[2]", "result": "dramatic improvement for cell-kill (N/No)"}, {"measurement": "viability at 0 h, 200 µM", "setting": "in vitro", "result": 100, "unit": "%"}, {"measurement": "viability at 0.5 h, 200 µM", "setting": "in vitro", "result": 105, "unit": "%"}]}
{"compound": "NCCN.NCCN.[Cl-].[Cl-].[Cl-].[Cl-].[Cl-].[Cl-].[Cl-].[Cl-].[NH3+]CC[NH3+].[Rh+3].[Rh+3]", "note": "[[RhenCl4]2 [enH2]]", "values": [{"measurement": "aerobic (oxic) response", "setting": "mammalian cell culture [3]; FIG. 3, aerobic (oxic)", "result": "effectively zero"}, {"measurement": "effectiveness compared with misonidazole", "setting": "mammalian cell culture [3]; from concentrations giving ser 1.6", "result": 75, "unit": "%"}, {"measurement": "1 hour Aerobic Cytotoxicity", "setting": "mammalian cell culture [4]; 100 µM", "result": 78.0, "unit": "%"}, {"measurement": "1 hour Aerobic Cytotoxicity", "setting": "mammalian cell culture [4]; 1000 µM", "result": 61.0, "unit": "%"}, {"measurement": "1 hour Aerobic Cytotoxicity", "setting": "mammalian cell culture [4]; 10000 µM", "result": 6.1, "unit": "%"}, {"measurement": "1 hour hypoxic cytotoxicity", "setting": "mammalian cell culture [4]; 100 µM", "result": 95, "unit": "%"}, {"measurement": "1 hour hypoxic cytotoxicity", "setting": "mammalian cell culture [4]; 330 µM", "result": 83.6, "unit": "%"}, {"measurement": "1 hour hypoxic cytotoxicity", "setting": "mammalian cell culture [4]; 1000 µM", "result": 62.7, "unit": "%"}, {"measurement": "1 hour hypoxic cytotoxicity", "setting": "mammalian cell culture [4]; 3300 µM", "result": 22, "unit": "%"}, {"measurement": "1 hour hypoxic cytotoxicity", "setting": "mammalian cell culture [4]; 10000 µM", "result": "< 1", "unit": "%"}]}
{"compound": "COCC(O)Cn1ccnc1[N+](=O)[O-]", "note": "(stereo not shown) [misonidazole, reference compound]", "values": [{"measurement": "EC (SER 1.6)", "setting": "mammalian cell culture [3]; read-out: C1.6: concentration required to give an ser (sensitizer enhancement ratio) of 1.6", "result": 1500, "unit": "µM"}]}
{"compound": "[O-2].[O-2].[O-2].[Rh+3].[Rh+3]", "note": "[rhodium oxide]", "values": [{"measurement": "toxicity, water solubility or sensitisation effect (combined statement)", "setting": "[2]", "result": "either too toxic, not soluble in water or failed altogether to show a sensitisation effect"}]}
{"compound": "[Cl][Rh]([Cl])[Cl]", "note": "[rhodium trichloride]", "values": [{"measurement": "toxicity, water solubility or sensitisation effect (combined statement)", "setting": "[2]", "result": "either too toxic, not soluble in water or failed altogether to show a sensitisation effect"}]}
{"compound": "CCCC[N+](CCCC)(CCCC)CCCC.[C-]#[O+].[C-]#[O+].[Cl-].[Cl-].[Rh+]", "note": "[tetra-n-butylammoniumdicarbonyldichlororhodium (I)]", "values": [{"measurement": "toxicity, water solubility or sensitisation effect (combined statement)", "setting": "[2]", "result": "either too toxic, not soluble in water or failed altogether to show a sensitisation effect"}]}
{"compound": "dichlorobis (ethylenediamine) rhodium (III) [Compound 3]", "values": [{"measurement": "improvement for cell-kill (N/No), sensitised vs unsensitised cells", "setting": "[2]", "result": "dramatic improvement for cell-kill (N/No)"}]}
